In US20040192928A1, “Novel compounds of the family of 3-alkyl-(4,5-diphenyl-imidazol-1-yl) and their use as soothing agents” (priority 2001, published 2004):

Test system: interleukin-8 secreted by normal human epidermal keratinocytes (NHEKs)
Assay: Inhibition of IL-8 secretion by NHEKs after stimulation with PMA (anti-irritant test)
Assay type: cell-based
Settings: NHEK, test compounds at 10 μM, NHEKs with 160 nM PMA, 24 hours at 37° C., IL-8 by ELISA
Text: Inhibition of the response of superficial epidermal cells to an irritant agent by assay of the interleukin-8 secreted by normal human epidermal keratinocytes (NHEKs) after stimulation with phorbol 12-myristate 13-acetate (PMA) as irritant agent.
This study uses the test developed by Wilmer [Wilmer, J. L. et al., J. invest. Dermatol., 102: 915-922 (1994)]. This test allows the evaluation of the antiirritant potential of various molecules, on a human keratinocyte (NHEK) cell line. In this test, an irritant situation is mimicked by exacerbating the production of IL-8 of the NHEKs by adding PMA to the culture medium, IL-8 being involved in initiating the keratinocyte irritation. The antiirritant effect of a molecule is then measured by means of its inhibitory action with respect to this exacerbated production.
Normal human epidermal keratinocytes (NHEKs) sold by the company Clonetics and distributed in France by the company TEBU are incubated in the presence of 160 nM of PMA for 24 hours at 37° C. In response to the PMA, the production of the chemotactic agent interleukin-8 (IL-8) is measured by enzymatic assay using an assay kit (Elisa D8050) sold by the company R&D. The absorbance values are measured using a microplate reader (MRX/Dynatech) according to the procedures supplied with. the assay kit. […]

Compound | inhibition at 10 µM
c1ccc(OCCCn2cnc(-c3ccccc3)c2-c2ccccc2)cc1 [3-phenoxypropyl(4,5-diphenylimidazol)-1-yl] | 32%
c1ccc(COCCCn2cnc(-c3ccccc3)c2-c2ccccc2)cc1 [Example 1, 3-benzyloxypropyl-(4,5-diphenylimidazol)-1-yl] | 41%
